Reference: patent EP2608671B1, “COMPOUNDS FOR TREATMENT OF CANCER” (Gtx, Inc., priority 2010, dated 2012)
Values after ≈ are worked out from the molar mass of the structure shown. Read-outs that look alike come from different tables or passages of the source.

Key:
PPC-1 = experiment: cells; details: Homo sapiens, PPC-1, 96 h, read-out: IC50 ± SEM (nM), PPC-1
DU 145 = experiment: cells; details: Homo sapiens, DU-145, 96 h, read-out: IC50 ± SEM (nM) Du 145
PC-3 = experiment: cells
Source text: The only compounds which belong to the invention are the ones falling under the scope of formula (XI).
Cells were stained with SRB solution.
Cells. […] Cells between the third and fifth passages were used for experiments.
Cell growth inhibition studies. […] Cells were stained with sulphorhodamine B (SRB) solution.

OVCAR-8 = experiment: SRB growth inhibition, MDR model parent line; format: cell-based, human; details: Homo sapiens
LNCaP = experiment: cells; details: Homo sapiens, 96 h, read-out: IC50 ± SEM (nM), LNCaP
in vivo [1] = details: mouse, po, 20 mg/kg
[2] = aqueous solubility; 90 min
in vivo [3] = details: rat, plasma, po, 10 mg/kg
MDA-MB-435 = experiment: SRB growth inhibition, sensitive parent melanoma line; format: cell-based; details: Homo sapiens, MDA-MB-435; parental cell line, n=3; read-out: IC50 ± SEM (nmol/L) MDA-MB-435
[4] = tested on: cancer and MDR cell lines with different resistance mechanisms; experiment: Growth inhibition in other cancer and MDR cell lines of Table 14B; format: cell-based; details: n=3
WM-164 melanoma cells = experiment: Microtubule imaging (immunofluorescence); format: cell-based, human; details: 18 h treatment
Source text: Primary antibody for tubulin and fluorescence-labeled secondary antibody were subsequently added to the cells. Cell nuclei were stained by DAPI. Whole Cell Stain Green was also applied to all cells. All images were acquired with an Olympus IX71 inverted fluorescence microscope (Olympus Corp., Tokyo, Japan) with overlays from separate images of tubulin (red), nuclei (blue), and whole cells (green).

MDA-MB-435/LCC6MDR1 = experiment: SRB growth inhibition, multidrug-resistant melanoma line; format: cell-based; details: MDA-MB-435/LCC6 MDR1; MDR1 overexpressed, n=3; read-out: IC50 ± SEM (nmol/L) MDA-MB-435/LCC6MDR1
MRP = experiment: Growth inhibition in MRP-mediated resistant cells (Table 14B); format: cell-based; details: n=3
NCI/ADR-RES = experiment: SRB growth inhibition, P-gp over-expressing MDR line; format: cell-based, human; details: Homo sapiens, NCI/ADR-RES; MDR1 overexpressed, n=3; read-out: IC50 ± SEM (nmol/L) NCI/ADR-RES
WM-164 = experiment: SRB cell growth inhibition (cytotoxicity) assay; format: cell-based, human; details: Homo sapiens
A375 = experiment: SRB cell growth inhibition (cytotoxicity) assay; format: cell-based, human; details: Homo sapiens, A-375; Table 14B, n=3; read-out: IC50 ± SEM (nmol/L) A375
PC-3/TxR tumors = details: PC-3/TxR xenograft, IV 20mpk, day 1 and 9
[5] = tested on: HUVECs (Human Umbilical Vein Endothelial Cells); format: cell-based
HUVEC monolayers = experiment: Endothelial monolayer permeability assay; format: cell-based, human; details: leakage of dextran after 1, 2, 4 h
T47D = format: cell-based, human
CaCO-2 = details: human

## COc1cc(C(=O)c2c[nH]c(-c3ccc(Cl)cc3)n2)cc(OC)c1OC [12fa, (2-(4-Chlorophenyl)-1H-imidazol-4-yl)(3,4,5-trimethoxyphenyl)methanone]
PPC-1
  IC50: 26 ± 0.2 nM
DU 145
  IC50: 36 ± 0.4 nM
PC-3; Homo sapiens, PC-3, 96 h, read-out: IC50 ± SEM (nM), PC-3
  IC50: 35 ± 1 nM
OVCAR-8; OVCAR-8 cells, read-out: IC50 ± SEM (nM) OVCAR-8
  IC50: 47 nM
LNCaP
  IC50: 24 ± 1 nM
In vivo [1]
  AUC: 3350 ng·h/mL
  Cmax: 2590 ng/mL
[2]
  Solubility: 12 µg/mL (≈ 32.2 µM)
In vivo [3]
  AUC: 3630 ng·h/mL
  Cmax: 1110 ng/mL

## COc1ccc(S(=O)(=O)Nc2cccnc2Nc2ccc(O)cc2)cc1 [ABT-751]
MDA-MB-435
  IC50: 417 ± 23 nmol/L
[4]; A375MA2 cells, read-out: IC50 ± SEM (nmol/L) A375MA2
  IC50: 265 ± 36 nmol/L
[4]; Homo sapiens, HEK293-pcDNA3.1 parental cell line, read-out: IC50 ± SEM (nmol/L) HEK293 - pcDNA3.1
  IC50: 645 ± 153 nmol/L
WM-164 melanoma cells
  effect on microtubules: microtubule fragmentation
MDA-MB-435/LCC6MDR1
  IC50: 577 ± 31 nmol/L
MRP; MRP1 overexpressed, read-out: IC50 ± SEM (nmol/L) HEK293-MRP1
  IC50: 717 ± 28 nmol/L
MRP; MRP2 overexpressed, read-out: IC50 ± SEM (nmol/L) HEK293-MRP2
  IC50: 747 ± 7 nmol/L
OVCAR-8; OVCAR-8, parental cell line, n=3, read-out: IC50 ± SEM (nmol/L) OVCAR-8
  IC50: 785 ± 17 nM
NCI/ADR-RES
  IC50: 864 ± 42 nmol/L
WM-164; WM164, read-out: IC50 ± SEM (nM) (n=3), WM-164, Table 14A
  IC50: 661 ± 56 nM
WM-164; WM164, Table 14B, n=3, read-out: IC50 ± SEM (nmol/L) WM-164
  IC50: 661 ± 56 nM
A375
  IC50: 685 ± 108 nmol/L

## CC(=O)O[C@@]12CO[C@@H]1C[C@H](O)[C@@]1(C)C(=O)[C@H](O)C3=C(C)[C@@H](OC(=O)[C@H](O)[C@@H](NC(=O)OC(C)(C)C)c4ccccc4)C[C@@](O)([C@@H](OC(=O)c4ccccc4)[C@H]21)C3(C)C [Dooetaxel]
PC-3/TxR tumors; end point day 19
  TGI (%): 56%
  Tumor size (mm^3) End: 999 ± 905 mm^3
PC-3/TxR tumors; start
  Tumor size (mm^3) Start: 170 ± 86 mm^3

## COc1cccc2c1C(=O)c1c(O)c3c(c(O)c1C2=O)C[C@@](O)(C(=O)CO)C[C@@H]3O[C@H]1C[C@H](N)[C@H](O)[C@H](C)O1 [Doxorubicin]
PC-3; read-out: IC50 PC3
  IC50: 397 nM
[5]; Table 24
  times more active against endothelial cells than against cancer cells: not specific to endothelial cells
[5]; mean IC50 in PC3 and T47D cells over HUVEC
  Selectivity ratio*, cancer cells/ HUVEC: 1.4
[5]; read-out: IC50 HUVEC
  IC50: 274 nM
HUVEC monolayers
  permeability of endothelial cell monolayer: did not induce any change
T47D
  IC50: 353 nM

## CC(C)NCC(O)COc1cccc2ccccc12 (centres unmarked) [Propranolol]
CaCO-2
  Papp(A→B) in CaCO-2 assay: Propranolol (19) 10^-6 cm/s
